According to ChEMBL document CHEMBL4138146, “A Schmidt rearrangement-mediated synthesis of novel tetrahydro-benzo[1,4]diazepin-5-ones as potential anticancer and antiprotozoal agents” (Eur J Med Chem, 2017):
Converted amounts (≈) assume the structure as drawn.

Tests used:
HL-60(TB) = assay: Growth inhibition of human HL-60(TB) cells assessed as cell growth at 10 uM incubated for 48 hrs by sulforhodamine B assay relative to control; assay type: functional; conditions: HL-60, 48 h, read-out: Activity
K562 = assay: Growth inhibition of human K562 cells assessed as cell growth at 10 uM incubated for 48 hrs by sulforhodamine B assay relative to control; assay type: functional; conditions: K562, 48 h, read-out: Activity
MOLT-4 = assay: Growth inhibition of human MOLT4 cells assessed as cell growth at 10 uM incubated for 48 hrs by sulforhodamine B assay relative to control; assay type: functional; conditions: MOLT-4, 48 h, read-out: Activity
RPMI-8226 = assay: Growth inhibition of human RPMI8226 cells assessed as cell growth at 10 uM incubated for 48 hrs by sulforhodamine B assay relative to control; assay type: functional; conditions: RPMI-8226, 48 h, read-out: Activity
SR = assay: Growth inhibition of human SR cells assessed as cell growth at 10 uM incubated for 48 hrs by sulforhodamine B assay relative to control; assay type: functional; conditions: read-out: Activity
A549 = assay: Growth inhibition of human A549/ATCC cells assessed as cell growth at 10 uM incubated for 48 hrs by sulforhodamine B assay relative to control; assay type: functional; conditions: A549, 48 h, read-out: Activity
EKVX = assay: Growth inhibition of human EKVX cells assessed as cell growth at 10 uM incubated for 48 hrs by sulforhodamine B assay relative to control; assay type: functional; conditions: read-out: Activity
NCI-H322M = assay: Growth inhibition of human NCI-H322M cells assessed as cell growth at 10 uM incubated for 48 hrs by sulforhodamine B assay relative to control; assay type: functional; conditions: read-out: Activity
NCI-H460 = assay: Growth inhibition of human NCI-H460 cells assessed as cell growth at 10 uM incubated for 48 hrs by sulforhodamine B assay relative to control; assay type: functional; conditions: NCI-H460, 48 h, read-out: Activity
HCT-15 = assay: Growth inhibition of human HCT15 cells assessed as cell growth at 10 uM incubated for 48 hrs by sulforhodamine B assay relative to control; assay type: functional; conditions: HCT-15, 48 h, read-out: Activity
KM12 = assay: Growth inhibition of human KM12 cells assessed as cell growth at 10 uM incubated for 48 hrs by sulforhodamine B assay relative to control; assay type: functional; conditions: KM12, 48 h, read-out: Activity
SW-620 = assay: Growth inhibition of human SW620 cells assessed as cell growth at 10 uM incubated for 48 hrs by sulforhodamine B assay relative to control; assay type: functional; conditions: SW-620, 48 h, read-out: Activity
SF-295 = assay: Growth inhibition of human SF295 cells assessed as cell growth at 10 uM incubated for 48 hrs by sulforhodamine B assay relative to control; assay type: functional; conditions: SF-295, 48 h, read-out: Activity
SNB-19 = assay: Growth inhibition of human SNB19 cells assessed as cell growth at 10 uM incubated for 48 hrs by sulforhodamine B assay relative to control; assay type: functional; conditions: SNB-19, 48 h, read-out: Activity
U-251 = assay: Growth inhibition of human U251 cells assessed as cell growth at 10 uM incubated for 48 hrs by sulforhodamine B assay relative to control; assay type: functional; conditions: U-251, 48 h, read-out: Activity
LOX IMVI = assay: Growth inhibition of human LOXIMVI cells assessed as cell growth at 10 uM incubated for 48 hrs by sulforhodamine B assay relative to control; assay type: functional; conditions: read-out: Activity
SK-MEL-2 = assay: Growth inhibition of human SK-MEL-2 cells assessed as cell growth at 10 uM incubated for 48 hrs by sulforhodamine B assay relative to control; assay type: functional; conditions: SK-MEL-2, 48 h, read-out: Activity
SK-MEL-28 = assay: Growth inhibition of human SK-MEL-28 cells assessed as cell growth at 10 uM incubated for 48 hrs by sulforhodamine B assay relative to control; assay type: functional; conditions: SK-MEL-28, 48 h, read-out: Activity
OVCAR-3 = assay: Growth inhibition of human OVCAR3 cells assessed as cell growth at 10 uM incubated for 48 hrs by sulforhodamine B assay relative to control; assay type: functional; conditions: OVCAR-3, 48 h, read-out: Activity
SK-OV-3 = assay: Growth inhibition of human SKOV3 cells assessed as cell growth at 10 uM incubated for 48 hrs by sulforhodamine B assay relative to control; assay type: functional; conditions: SK-OV-3, 48 h, read-out: Activity
786-0 = assay: Growth inhibition of human 786-0 cells assessed as cell growth at 10 uM incubated for 48 hrs by sulforhodamine B assay relative to control; assay type: functional; conditions: 786-0, 48 h, read-out: Activity
CAKI-1 = assay: Growth inhibition of human Caki1 cells assessed as cell growth at 10 uM incubated for 48 hrs by sulforhodamine B assay relative to control; assay type: functional; conditions: CAKI-1, 48 h, read-out: Activity
SN12C = assay: Growth inhibition of human SN12C cells assessed as cell growth at 10 uM incubated for 48 hrs by sulforhodamine B assay relative to control; assay type: functional; conditions: read-out: Activity
TK-10 = assay: Growth inhibition of human TK10 cells assessed as cell growth at 10 uM incubated for 48 hrs by sulforhodamine B assay relative to control; assay type: functional; conditions: TK-10, 48 h, read-out: Activity
MCF7 = assay: Growth inhibition of human MCF7 cells assessed as cell growth at 10 uM incubated for 48 hrs by sulforhodamine B assay relative to control; assay type: functional; conditions: MCF7, 48 h, read-out: Activity
U-937 = assay: Cytotoxicity against human U937 cells after 72 hrs by MTT assay; assay type: functional; conditions: U-937, 72 h, read-out: LC50 (the source's name)
Plasmodium falciparum = assay: Antimalarial activity against chloroquine-sensitive Plasmodium falciparum 3D7 incubated for 48 hrs by malstat reagent based LDH release assay; assay type: functional, organism-based; conditions: 3D7, 48 h
Leishmania panamensis = assay: Antileishmanial activity against EpiR/GFP fused Leishmania panamensis MHOM/CO/87/UA140 intracellular amastigotes infected in human […] cells after 72 hrs by flow cytometric method; assay type: functional, organism-based; conditions: MHOM/CO/87/UA140, 72 h

Row | SMILES | growth at 10 µM (HL-60(TB)) [%] | growth at 10 µM (K562) [%] | growth at 10 µM (MOLT-4) [%] | growth at 10 µM (RPMI-8226) [%] | growth at 10 µM (A549) [%] | growth at 10 µM (NCI-H322M) [%] | growth at 10 µM (NCI-H460) [%] | growth at 10 µM (KM12) [%] | growth at 10 µM (SW-620) [%] | growth at 10 µM (SNB-19) [%] | growth at 10 µM (U-251) [%] | growth at 10 µM (LOX IMVI) [%] | growth at 10 µM (SK-MEL-2) [%] | growth at 10 µM (SK-MEL-28) [%] | growth at 10 µM (OVCAR-3) [%] | growth at 10 µM (SK-OV-3) [%] | growth at 10 µM (786-0) [%] | growth at 10 µM (CAKI-1) [%] | growth at 10 µM (SN12C) [%] | growth at 10 µM (TK-10) [%] | further results
1 | O=C1NCC(c2cc3ccc4ccccc4c3[nH]c2=O)Nc2ccccc21 (stereo not given) | 86.7 | 97.3 | 90.4 | 109 | 82.4 | 111 | 82.3 | 99.1 | 91.5 | 89.2 | 102 | 90.6 | 92.2 | 104 | 107 | 99.9 | 92.8 | 85.7 | 79.3 | 107 | growth at 10 µM (SR): 56.4%; growth at 10 µM (EKVX): 96.4%; growth at 10 µM (HCT-15): 102%; growth at 10 µM (SF-295): 100%; growth at 10 µM (MCF7): 33.4%; CC50 (U-937): 8.3 µg/mL (≈ 23.4 µM); EC50 (Plasmodium falciparum): > 20 µg/mL; EC50 (Leishmania panamensis): 4.98 µg/mL (≈ 14 µM)
2 | O=C1CC(c2cc3ccc4ccccc4c3[nH]c2=O)Nc2ccccc21 (stereo not given) | 100 | 87.2 | 89.5 | 99.7 | 92.4 | 108 | 81.1 | 94.5 | 96 | 92.5 | 87.6 | 84 | 96.2 | 106 | 115 | 98.8 | 95.6 | 86 | 90.7 | 116 | growth at 10 µM (SR): 11.1%; growth at 10 µM (EKVX): 93.8%; growth at 10 µM (HCT-15): 96.5%; growth at 10 µM (SF-295): 105%; growth at 10 µM (MCF7): 76.2%
3 | CCCCn1c(=O)c(C2CNC(=O)c3ccccc3N2)cc2ccc(Cl)cc21 (stereo not given) | 107 | 87.9 | 107 | 103 | 92.6 | 95.7 | 87 | 98.5 | 100 | 94.7 | 102 | 86.3 | 99.6 | 108 | 112 | 89.8 | 107 | 72.5 | 90.7 | 126 | growth at 10 µM (SR): 59.8%; growth at 10 µM (EKVX): 89.8%; growth at 10 µM (HCT-15): 98.5%; growth at 10 µM (SF-295): 104%; growth at 10 µM (MCF7): 89.1%
4 | CCCCOc1nc2ccc(OC)cc2cc1C1CNC(=O)c2ccccc2N1 (stereo not given) |  |  |  | 88.9 | 86.4 | 110 | 97.2 | 96.6 | 97.6 | 105 | 106 | 104 | 88.7 | 102 | 101 | 89.3 | 96.6 | 77.7 | 91.5 | 97 | 
5 | CCCCn1c(=O)c(C2CNC(=O)c3ccccc3N2)cc2ccccc21 (stereo not given) | 96.7 | 99.3 | 46.4 | 109 | 97.1 | 111 | 102 | 101 | 99.2 | 91 | 98 | 97.2 | 106 | 102 | 99.8 | 97.2 | 92.4 | 85.8 | 85.7 | 109 | growth at 10 µM (SR): 102%; growth at 10 µM (EKVX): 103%; growth at 10 µM (HCT-15): 101%; growth at 10 µM (SF-295): 96.8%; growth at 10 µM (MCF7): 99.6%
6 | O=C1CC(c2cc3ccccc3[nH]c2=O)Nc2ccccc21 (stereo not given) | 98 | 102 | 102 | 107 | 95.5 | 102 | 105 | 105 | 104 | 99.4 | 99.7 | 98.2 | 98.3 | 110 | 113 | 99.4 | 93.9 | 95.2 | 93.3 | 98 | growth at 10 µM (SR): 95.4%; growth at 10 µM (EKVX): 108%; growth at 10 µM (HCT-15): 97.8%; growth at 10 µM (SF-295): 98.4%; growth at 10 µM (MCF7): 102%
